The text below walks through data of patent US4322339A, “Pharmacologically active peptides” (Eli Lilly and Company, priority 1980, dated 1982).

Experiment [1] has as its system mouse (Cox Standard). As to the kind of experiment: mouse hot plate test (mouse jump). Type of experiment: in vivo. As to conditions: subcutaneous injection, hot plate 52° C., 15 minutes after administration. (In general: Hot-plate and tail-flick tests time the reaction to a heat stimulus.)
Experiment [2] addresses T1, enkephalin (δ) receptor (Mus musculus, UniProt P32300).
T1 construct: from tissue; host or cells: isolated mouse vas deferens (Cox mice, 30-40 g)
Nature of the experiment: mouse vas deferens assay. Format: tissue-based. To be noted: concentration causing depression of 50% of the electrically evoked contraction; field stimulation 0.15 Hz, 1 msec., 40 V; 37° C. Here is the method: In the mouse vas deferens test, single mouse vas deferens from mature mice (Cox, 30-40 g.) are suspended in 3 ml. of modified Kreb's solution aerated with 95% O2 -5% CO2 and maintained at 37° C. The twitch induced by field stimulation (0.15 Hz, 1 msec., 40 V) is recorded on a polygraph via an isometric transducer. The test compound is added to the bath in 20 to 30 μl. aliquots. A dose-response curve is constructed by cumulative addition of appropriate amounts of the compound to the bath. Comparison of relative agonist potency at the δ receptor is made on the basis of IC50 values (concentration causing depression of 50% of the electrically evoked contraction).

Usually IC50 stands for the point on the concentration scale where inhibition reaches its midpoint. Low readings indicate higher potency, high ones lower potency.

T1 sequence (P32300 whole entry): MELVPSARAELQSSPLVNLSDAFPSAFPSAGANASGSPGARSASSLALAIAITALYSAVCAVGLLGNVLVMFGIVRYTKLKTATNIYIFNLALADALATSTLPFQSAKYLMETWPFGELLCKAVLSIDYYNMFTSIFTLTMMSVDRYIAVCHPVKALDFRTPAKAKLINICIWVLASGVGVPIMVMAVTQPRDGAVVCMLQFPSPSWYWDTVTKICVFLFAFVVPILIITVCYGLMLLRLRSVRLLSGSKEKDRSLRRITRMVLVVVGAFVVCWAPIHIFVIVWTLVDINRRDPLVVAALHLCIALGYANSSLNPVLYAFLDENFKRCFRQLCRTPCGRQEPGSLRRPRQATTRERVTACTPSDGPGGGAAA

As to `CSCC[C@@H](C(N)=O)N(C)C(=O)[C@H](Cc1cccc(Br)c1)NC(=O)CNC(=O)[C@@H](C)NC(=O)[C@@H](N)Cc1ccc(O)cc1` [Br, L-Tyrosyl-D-alanyl-glycyl-L-m-bromophenylalanyl-L-(N^α -methyl)methioninamide], the “Mouse Jump ED50” value in experiment [1] (Cox Standard mice) was found to be 0.36 mg/kg. In addition, the IC50 in experiment [2] came to 0.49 nM.

On to `CSCC[C@@H](C(N)=O)N(C)C(=O)[C@H](Cc1cccc(C(F)(F)F)c1)NC(=O)CNC(=O)[C@@H](C)NC(=O)[C@@H](N)Cc1ccc(O)cc1` [CF3, L-Tyrosyl-D-alanyl-glycyl-L-m-trifluoro-methylphenylalanyl-L-(N^α-methyl)methioninamide], for which the “Mouse Jump ED50” value in experiment [1] (Cox Standard mice) was found to be 0.33 mg/kg. This compound also showed an IC50 in experiment [2] of 1.78 nM.

As to `CSCC[C@@H](C(N)=O)N(C)C(=O)[C@H](Cc1cccc(C)c1)NC(=O)CNC(=O)[C@@H](C)NC(=O)[C@@H](N)Cc1ccc(O)cc1` [CH3, L-Tyrosyl-D-alanyl-glycyl-L-m-methylphenylalanyl-L-(N^α -methyl)methioninamide], the “Mouse Jump ED50” value in experiment [1] (Cox Standard mice) amounted to 0.33 mg/kg. The compound further yielded a 50% inhibitory concentration (IC50) in experiment [2] of 2.73 nM. Taken in the same sequence, the figures for `CSCC[C@@H](C(N)=O)N(C)C(=O)[C@H](Cc1cccc(Cl)c1)NC(=O)CNC(=O)[C@@H](C)NC(=O)[C@@H](N)Cc1ccc(O)cc1` [Cl, L-Tyrosyl-D-alanyl-glycyl-L-m-chlorophenylalanyl-L-(N^α -methyl)methioninamide] were 0.11 mg/kg and 0.71 nM. Taken in the same sequence, the figures for `CSCC[C@@H](C(N)=O)N(C)C(=O)[C@H](Cc1ccccc1)NC(=O)CNC(=O)[C@@H](C)NC(=O)[C@@H](N)Cc1ccc(O)cc1` [H, reference compound] were 0.36 mg/kg and 12.2 nM. In experiment [2], `CSCC[C@@H](C(N)=O)N(C)C(=O)[C@H](Cc1cccc(I)c1)NC(=O)CNC(=O)[C@@H](C)NC(=O)[C@@H](N)Cc1ccc(O)cc1` [I, H-L-Tyr-D-Ala-Gly-L-Phe(I)-L-(N-Me)Met-NH2] came in with an IC50 of 2.1 nM. In other words, the single-digit nanomolar range. For `COc1cccc(C[C@H](NC(=O)CNC(=O)[C@@H](C)NC(=O)[C@@H](N)Cc2ccc(O)cc2)C(=O)N(C)[C@@H](CCSC)C(N)=O)c1` [OMe, L-Tyrosyl-D-alanyl-glycyl-L-m-methoxyphenylalanyl-L-(N^α -methyl)methioninamide], in experiment [1] (run using Harlan ND4 mice), the “Mouse Jump ED50” value came out at 0.15 mg/kg. The same compound came in with an IC50 in experiment [2] of 2.92 nM.
